Earlier results as cited in US6486118B1, “Detergent compositions” (Unilever Home & Personal Care USA, division of Conopco, Inc., priority 1999, dated 2002).
Read-outs that look alike come from different tables or passages of the source.

[1] = other common materials, by contrast, at 20° C.

Water Solubility (g/100 g) (highly water-soluble materials, grams of solid to form a saturated solution in 100 grams of water at 20° C.)	SMILES	Water Solubility (g/100 g) [1]
	O=BO[O-].[Na+] [Sodium perborate anhydrous]	3.7 g/100 g
	O=P(O)(O)OP(=O)(O)OP(=O)(O)O [Sodium tripolyphosphate anhydrous]	15 g/100 g
>100 g/100 g	NC(N)=O [Urea]	
